From US11198678B1, “Plakortinic acids A and B: cytotoxic cycloperoxides with a unique bicyclo[4.2.0]octene unit from sponges of the genera Plakortis and Xestospongia” (University of Puerto Rico, priority 2016, dated 2021)

Legend:
[1] = test system: A2058 melanoma cells; experiment: MTS cell viability (cytotoxicity) assay, A2058 melanoma cells; assay type: cell-based, human; details: 48 h treatment
Procedure: (§1) DU-145 human prostate cancer and A2058 melanoma cell lines were obtained from ATCC. These cells were cultured in RPMI-1640 or DMEM medium containing 10% fetal bovine serum (FBS), 100 units/mL penicillin, and 100 μg/mL streptomycin. All cells were maintained in a 5% CO2 atmosphere at 37° C. To determine the viability of the cells, Promega CellTiter 96 aqueous nonradioactive cell proliferation assays (MTS) were performed as described by the supplier (Promega; Madison, Wis.). Briefly, cells (5000/well) were seeded in 96-well plates and incubated overnight at 37° C. in 5% CO2. Cells were treated for 48 h with each compound. The concentration used was 10 μM. Dimethyl sulfoxide (DMSO) was used as the vehicle control. IC50 values of compounds were determined in a dose-dependent manner (0.1, 0.5, 1, 5, 10, 20, and 50 μM). Cell viability was determined by tetrazolium conversion to its formazan dye, and absorbance of formazan was measured at 490 nm using an automated ELISA plate reader. The production of formazan dye was directly proportional to the number of living cells. Each experiment was done in quadruplicate in the absence of a positive control.

[2] = test system: DU-145 human prostate cancer cells; experiment: MTS cell viability (cytotoxicity) assay, DU-145 prostate cancer cells; assay type: cell-based; details: 48 h treatment
Procedure: as §1

| Substance | IC50 [1] | IC50 [2] |
| --- | --- | --- |
| plakortinic acid A [compound 2] | 300 nM | 500 nM |
| plakortinic acid B methyl ester [compound 4] | 4700 nM | 5900 nM |
